Measured values from patent US11926627B1 (priority 2023, dated 2024).
Values after ≈ are worked out from the molar mass of the structure shown. Read-outs that look alike come from different tables or passages of the source.

Tested on: Mycobacterium tuberculosis H37Rv (ATCC: 25177)
Test: Resazurin Microplate Assay (REMA), antitubercular activity against H37Rv
Assay type: cell-based
Settings: 192 h, read-out: Antitubercular activity against Mycobacterium tuberculosis H37Rv (MIC)
[1] = H37Rv, ATCC: 25177, REMA, Middlebrook 7H9 broth, 8 days incubation at 37° C. then resazurin overnight

| Compound | MIC (H37RV) | MIC [1] |
| --- | --- | --- |
| COC(=O)c1c(C(=O)OC)c2ccc3cc(C)ccc3n2c1C(=O)c1ccc(F)cc1 [7-METHYL-QUIN1, Dimethyl 1-(4-fluorobenzoyl)-7-methylpyrrolo[1,2-α]quinoline-2,3-dicarboxylate] | 0.5 µg/mL (≈ 1.19 µM) | – |
| COC(=O)c1c(C(=O)OC)c2ccc3cc(C)ccc3n2c1C(=O)c1ccc(Br)cc1 [7-METHYL-QUIN2, Dimethyl 1-(4-bromobenzoyl)-7-methylpyrrolo[1,2-α]quinoline-2,3-dicarboxylate] | – | 2 µg/mL (≈ 4.16 µM) |
| CCOC(=O)c1cc(C(=O)c2ccc(Cl)cc2)n2c1ccc1cc(C)ccc12 [7-METHYL-QUIN3, Ethyl 1-(4-chlorobenzoyl)-7-methylpyrrolo[1,2-α]quinoline-3-carboxylate] | – | 4 µg/mL (≈ 10.2 µM) |
| COC(=O)c1c(C(=O)OC)c2ccc3cc(C)ccc3n2c1C(=O)c1ccc(Cl)cc1 [7-METHYL-QUIN4, Dimethyl 1-(4-chlorobenzoyl)-7-methylpyrrolo[1,2-α]quinoline-2,3-dicarboxylate] | – | 4 µg/mL (≈ 9.18 µM) |
